# Experimental data: ChEMBL document CHEMBL1126210, “Conformationally restricted peptide isosteres. 2.1 Synthesis and in vitro potency of dipeptide renin inhibitors employing a 2-alkylsulfonyl-3-phenylcyclopropane carboxamide as a P3 amino acid replacement” (Bioorg Med Chem Lett, 1992)
# Tests used:
# [1] = molecular target: T1, Renin (Homo sapiens, UniProt P00797); test: In vitro inhibition of human plasma renin at PH 7.4
# T1 sequence (P00797 whole entry): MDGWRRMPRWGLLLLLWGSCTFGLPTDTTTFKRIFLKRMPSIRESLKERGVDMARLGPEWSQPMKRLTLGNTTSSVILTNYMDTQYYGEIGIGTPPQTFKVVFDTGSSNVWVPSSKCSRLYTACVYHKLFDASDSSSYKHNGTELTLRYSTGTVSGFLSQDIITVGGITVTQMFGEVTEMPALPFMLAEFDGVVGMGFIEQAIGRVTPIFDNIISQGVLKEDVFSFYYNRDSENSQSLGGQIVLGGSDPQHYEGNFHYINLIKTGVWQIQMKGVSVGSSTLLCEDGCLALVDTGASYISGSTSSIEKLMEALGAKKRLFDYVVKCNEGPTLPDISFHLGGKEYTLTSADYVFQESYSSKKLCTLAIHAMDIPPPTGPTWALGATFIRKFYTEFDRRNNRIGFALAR
# [2] = molecular target: T1, Renin; test: In vitro inhibition of purified human renin at PH 6.0
IC50 [1],IC50 [2],SMILES
20 nM,0.7 nM,CC(C)C[C@H](O)[C@H](O)[C@H](CC1CCCCC1)NC(=O)[C@H](Cc1cscn1)NC(=O)[C@H]1[C@H](CC(=O)N2CCOCC2)[C@@H]1c1ccccc1
0.87 nM,,CC(C)C[C@H](O)[C@H](O)[C@H](CC1CCCCC1)NC(=O)[C@H](Cc1cscn1)NC(=O)[C@H](Cc1ccccc1)CS(=O)(=O)C(C)(C)C
15 nM,0.79 nM,CC(C)C[C@H](O)[C@H](O)[C@H](CC1CCCCC1)NC(=O)[C@H](Cc1cscn1)NC(=O)[C@@H]1[C@@H](C2CCCCC2)[C@H]1S(=O)(=O)C(C)C
85 nM,7 nM,CC(C)C[C@H](O)[C@H](O)[C@H](CC1CCCCC1)NC(=O)[C@H](Cc1cscn1)NC(=O)[C@H]1[C@H](c2ccccc2)[C@@H]1S(=O)(=O)C(C)C
27 nM,7.2 nM,C=CS(=O)(=O)[C@@H]1[C@@H](C(=O)N[C@@H](Cc2cscn2)C(=O)N[C@@H](CC2CCCCC2)[C@@H](O)[C@@H](O)CC(C)C)[C@@H]1c1ccccc1
1.4 nM,,CC(C)C[C@H](O)[C@H](O)[C@H](CC1CCCCC1)NC(=O)[C@H](Cc1cscn1)NC(=O)[C@H](Cc1ccccc1)CS(=O)(=O)N1CCOCC1
29 nM,1.2 nM,CC(C)C[C@H](O)[C@H](O)[C@H](CC1CCCCC1)NC(=O)[C@H](Cc1cscn1)NC(=O)[C@@H]1[C@@H](c2ccccc2)[C@H]1S(=O)(=O)c1ccccc1
,14 nM,CC(C)C[C@H](O)[C@H](O)[C@H](CC1CCCCC1)NC(=O)[C@H](Cc1cscn1)NC(=O)[C@H]1[C@H](C2CCCCC2)[C@@H]1S(=O)(=O)C(C)C
370 nM,4.4 nM,CC(C)C[C@H](NC(=O)[C@H]1[C@H](c2ccccc2)[C@@H]1S(=O)(=O)C(C)C)C(=O)N[C@@H](CC1CCCCC1)[C@@H](O)[C@@H](O)CC(C)C
13 nM,0.37 nM,CCCC[C@H](NC(=O)[C@@H]1[C@@H](c2ccccc2)[C@H]1S(=O)(=O)C(C)C)C(=O)N[C@@H](CC1CCCCC1)[C@@H](O)[C@@H](O)CC(C)C
23 nM,0.63 nM,CC(C)C[C@H](O)[C@H](O)[C@H](CC1CCCCC1)NC(=O)[C@H](Cc1cscn1)NC(=O)[C@@H]1[C@@H](c2ccccc2)[C@H]1S(C)(=O)=O
15 nM,2.5 nM,CC(C)C[C@H](O)[C@H](O)[C@H](CC1CCCCC1)NC(=O)[C@H](Cn1ccnc1)NC(=O)[C@H]1[C@H](c2ccccc2)[C@@H]1S(=O)(=O)C(C)C
7.9 nM,0.38 nM,CC(C)C[C@H](O)[C@H](O)[C@H](CC1CCCCC1)NC(=O)[C@H](Cc1cscn1)NC(=O)[C@@H]1[C@@H](c2ccccc2)[C@H]1S(=O)(=O)C(C)C
16 nM,0.48 nM,COCOCCS(=O)(=O)[C@H]1[C@H](C(=O)N[C@@H](Cc2cscn2)C(=O)N[C@@H](CC2CCCCC2)[C@@H](O)[C@@H](O)CC(C)C)[C@H]1c1ccccc1
33 nM,1 nM,COCOCCS(=O)(=O)[C@@H]1[C@@H](C(=O)N[C@@H](Cc2cscn2)C(=O)N[C@@H](CC2CCCCC2)[C@@H](O)[C@@H](O)CC(C)C)[C@@H]1c1ccccc1
17 nM,0.63 nM,C=CS(=O)(=O)[C@H]1[C@H](C(=O)N[C@@H](Cc2cscn2)C(=O)N[C@@H](CC2CCCCC2)[C@@H](O)[C@@H](O)CC(C)C)[C@H]1c1ccccc1
18 nM,0.77 nM,CO[C@@H](CC(C)C)[C@H](O)[C@H](CC1CCCCC1)NC(=O)[C@H](Cc1cscn1)NC(=O)C(Cc1ccccc1)CS(=O)(=O)c1ccccc1 (stereo partly drawn)
5.8 nM,1.4 nM,CC(C)C[C@H](O)[C@H](O)[C@H](CC1CCCCC1)NC(=O)[C@H](Cn1ccnc1)NC(=O)[C@@H]1[C@@H](c2ccccc2)[C@H]1S(=O)(=O)C(C)C
14 nM,0.59 nM,CC(C)C[C@H](NC(=O)[C@@H]1[C@@H](c2ccccc2)[C@H]1S(=O)(=O)C(C)C)C(=O)N[C@@H](CC1CCCCC1)[C@@H](O)[C@@H](O)CC(C)C
,23 nM,CC(C)C[C@H](O)[C@H](O)[C@H](CC1CCCCC1)NC(=O)[C@H](Cc1cscn1)NC(=O)[C@H]1[C@H](c2ccccc2)[C@@H]1S(C)(=O)=O
160 nM,1.9 nM,CCCC[C@H](NC(=O)[C@H]1[C@H](c2ccccc2)[C@@H]1S(=O)(=O)C(C)C)C(=O)N[C@@H](CC1CCCCC1)[C@@H](O)[C@@H](O)CC(C)C
